Experiments:
[1] = biological target: T1, H+-ATPase in the plasma membrane of Saccharomyces cerevisiae (Saccharomyces cerevisiae, UniProt P05030); format: cell-based; parameters: endogenous in cells; host or cells: intact S. cerevisiae cells in suspension
Protocol: The spectrometer 10 comprises two electrochemical cells 11, 12. Cell 11 is a test cell containing a sample of the biological system whose nonlinear dielectric properties are being studied. In this example the biological system comprises a system comprising a suspension of S. cerevisiae. The cell concentration was approximately 50 mg dry wt. ml^-1 in a medium of 20 mM KH2 PO4, 30 mM KCl, 1 mM MgCl2 pH 6.5. Tests were carried out within four hours of preparing the suspension. Cell 12 is a reference cell comprising the supernatant of the test suspension, the conductivity of which was adjusted with distilled water to compensate for the volume fraction of cells present in the sample, to be identical to that of the sample at the frequency of interest. The cells 11, 12 were connected to a sinusoidal oscillator 13, via a Data Translation Analog to Digital converter, to an 80386 microcomputer 14.
The sample cell suspension was pipetted into the electrode cell 11 (FIG. 1), the test waveform applied to the (outer) current electrodes, and the data logged from the (inner) voltage electrodes at a sampling frequency (which was typically at 25 times the frequency of the fundamental) and for a time specified by the operator. Time was specified in terms of a number of blocks, each block consisting of 512 samples. At the end of the time specified, the data were Fourier transformed as follows. […]

[2] = biological target: vanadate-resistant ATPase of a mutant strain of yeast (Saccharomyces cerevisiae, UniProt P05030); details: mutant strain with vanadate-resistant ATPase
[3] = biological target: T1, H+-ATPase in the plasma membrane of Saccharomyces cerevisiae; details: cells metabolising added D-glucose
Protocol: As described above, a 3rd harmonic was reproducibly observed with resting cell suspensions of S. cerevisiae. This could be ascribed to the presence of the H^+ -ATPase in this organism, and should be expected to reflect a situation in which the enzyme was at static head. An experiment to determine how this behaviour might be modified when the enzyme was driven away from static head and was able (or expected) to do work was carried out. Resting cells were taken, their (usual) non-linear dielectric spectrum recorded, and a metabolisable carbon source (D-glucose) added.

T1 sequence (P05030 whole entry): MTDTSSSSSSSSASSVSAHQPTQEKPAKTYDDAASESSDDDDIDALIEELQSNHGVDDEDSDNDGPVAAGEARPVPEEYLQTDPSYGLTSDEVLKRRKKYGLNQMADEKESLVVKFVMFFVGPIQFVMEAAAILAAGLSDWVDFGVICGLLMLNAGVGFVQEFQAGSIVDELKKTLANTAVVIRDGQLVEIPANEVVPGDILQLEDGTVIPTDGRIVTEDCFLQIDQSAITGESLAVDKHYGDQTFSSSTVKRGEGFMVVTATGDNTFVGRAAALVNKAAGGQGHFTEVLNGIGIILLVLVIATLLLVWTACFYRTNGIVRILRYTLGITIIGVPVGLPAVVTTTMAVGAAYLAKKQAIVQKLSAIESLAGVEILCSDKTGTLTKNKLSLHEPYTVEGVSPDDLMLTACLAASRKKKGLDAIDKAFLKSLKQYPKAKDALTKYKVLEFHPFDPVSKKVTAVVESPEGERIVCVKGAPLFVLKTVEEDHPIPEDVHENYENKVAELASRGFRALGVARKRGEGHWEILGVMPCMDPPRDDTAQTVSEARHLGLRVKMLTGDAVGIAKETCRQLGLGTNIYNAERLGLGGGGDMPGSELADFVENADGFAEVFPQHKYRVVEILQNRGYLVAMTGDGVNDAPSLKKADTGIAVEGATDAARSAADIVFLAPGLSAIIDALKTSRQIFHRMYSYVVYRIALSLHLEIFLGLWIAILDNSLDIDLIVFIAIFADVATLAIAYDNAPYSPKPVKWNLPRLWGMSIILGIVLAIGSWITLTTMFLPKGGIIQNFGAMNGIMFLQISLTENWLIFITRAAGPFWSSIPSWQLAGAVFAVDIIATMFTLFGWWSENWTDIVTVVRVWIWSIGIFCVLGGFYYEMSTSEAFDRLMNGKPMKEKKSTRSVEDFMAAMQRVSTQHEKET
Sequence of vanadate-resistant ATPase of a mutant strain of yeast (P05030 whole entry, change not shown): as the sequence (P05030 whole entry) above

## C(=NC(c1ccccc1)c1ccccc1)=NC(c1ccccc1)c1ccccc1 [dibenzhydryl carbodiimide]
[1]; 0.2 pmol/mg dry wt of cells
  generation of harmonics: completely abolished

## sodium metavanadate
[2]
  generation of harmonics in the presence of vanadate: vanadate resistant
[3]
  even (2nd and 4th) harmonics in the presence of vanadate: vanadate-sensitive
[1]; 1 mM sodium metavanadate, FIG. 12
  generation of the 3rd harmonic: essentially completely abolished

Source: patent US5569591A, “Analytical or monitoring apparatus and method” (priority 1990, dated 1996)
